Source: patent US9242996B2 (Novartis AG, priority 2013, dated 2016)

Biological target: activated ERK2 (Homo sapiens (Human), UniProt P28482)
Assay: Activated ERK2 (20 pM) Kinase Assay (AlphaScreen, ERKtide phosphorylation)
Assay type: biochemical
Details: 0.02 nM ERK2, 400 nM ERKtide peptide, 35 μM ATP, 30 min preincubation
How it was run: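 Activated human ERK2 (0.02 nM) preincubated 30 min with compounds, then 400 nM ERKtide and 35 μM ATP added for 4 h at ambient temperature in HEPES pH 7.5, MgCl2, DTT, Tween-20, BSA. EDTA stop; phospho-peptide read by AlphaScreen after overnight dark incubation; four-parameter IC50.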

Sequence of activated ERK2 (P28482 whole entry): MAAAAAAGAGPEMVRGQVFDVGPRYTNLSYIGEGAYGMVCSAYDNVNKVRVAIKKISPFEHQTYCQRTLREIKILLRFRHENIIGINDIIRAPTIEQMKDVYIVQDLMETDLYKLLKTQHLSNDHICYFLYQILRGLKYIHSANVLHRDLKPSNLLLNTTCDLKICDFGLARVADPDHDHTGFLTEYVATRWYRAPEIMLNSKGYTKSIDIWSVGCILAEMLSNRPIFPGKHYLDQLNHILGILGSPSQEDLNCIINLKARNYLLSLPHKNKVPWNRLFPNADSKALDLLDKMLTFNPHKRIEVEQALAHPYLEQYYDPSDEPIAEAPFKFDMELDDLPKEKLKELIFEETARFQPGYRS

Row | IC50 | SMILES
1 | 0.0198 nM | CSc1cc(F)cc([C@@H](CO)NC(=O)c2ccc(-c3nc([C@H]4CC[C@H](O)CC4)cnc3N)cc2F)c1 [Example 396, 4-(3-amino-6-((1r,4S)-4-hydroxy-cyclohexyl)pyrazin-2-yl)-2-fluoro-N-((S)-1-(3-fluoro-5-(methylthio)phenyl)-2-hydroxyethyl) benzamide]
2 | 0.281 nM | C[C@@H](O)[C@@H](NC(=O)c1ccc(-c2nc([C@H]3CC[C@H](O)CC3)cnc2N)cc1F)c1cccc(Cl)c1 [Example 398, 4-(3-amino-6-((1r,4S)-4-hydroxy-cyclohexyl)pyrazin-2-yl)-N-((1S,2R)-1-(3-chlorophenyl)-2-hydroxypropyl)-2-fluorobenzamide]
3 | 0.0463 nM | CNC[C@@H](NC(=O)c1ccc(-c2nc([C@H]3CC[C@H](O)CC3)cnc2N)cc1F)c1cccc(Cl)c1 [Example 401, 4-(3-amino-6-((1r,4S)-4-hydroxy-cyclohexyl)pyrazin-2-yl)-N-((S)-1-(3-chlorophenyl)-2-(methylamino)ethyl)-2-fluorobenzamide]
4 | 0.115 nM | [N-]=[N+]=NC[C@@H](NC(=O)c1ccc(-c2nc(C3CCOCC3)cnc2N)cc1F)c1cccc(Cl)c1 [Example 404, (S)-4-(3-amino-6-(tetrahydro-2H-pyran-4-yl)pyrazin-2-yl)-N-(2-azido-1-(3-chlorophenyl)ethyl)-2-fluorobenzamide]
5 | 0.238 nM | CC(=O)NC[C@@H](NC(=O)c1ccc(-c2nc([C@H]3CC[C@H](O)CC3)cnc2N)cc1F)c1cccc(Cl)c1 [Example 405, N-((S)-2-acetamido-1-(3-chlorophenyl)ethyl)-4-(3-amino-6-((1r,4S)-4-hydroxy-cyclohexyl)pyrazin-2-yl)-2-fluorobenzamide]
6 | 0.249 nM | CO[C@H]1CC[C@H](c2cnc(N)c(-c3ccc(C(=O)N[C@H](CNC(C)=O)c4cccc(Cl)c4)c(F)c3)n2)CC1 [Example 406, N-((S)-2-acetamido-1-(3-chlorophenyl)ethyl)-4-(3-amino-6-((1r,4S)-4-methoxy-cyclohexyl)pyrazin-2-yl)-2-fluorobenzamide]
7 | 0.333 nM | COC(=O)NC[C@@H](NC(=O)c1ccc(-c2nc(C3CCOCC3)cnc2N)cc1F)c1cccc(Cl)c1 [Example 407, (S)-methyl (2-(4-(3-amino-6-(tetrahydro-2H-pyran-4-yl)pyrazin-2-yl)-2-fluoro-benzamido)-2-(3-chlorophenyl)ethyl)carbamate]
8 | 0.0201 nM | CC(=O)NC[C@@H](NC(=O)c1ccc(-c2nc(C3CCOCC3)cnc2N)cc1F)c1cc(F)cc(Br)c1 [Example 408, (S)-N-(2-acetamido-1-(3-bromo-5-fluorophenyl)ethyl)-4-(3-amino-6-(tetrahydro-2H-pyran-4-yl)pyrazin-2-yl)-2-fluorobenzamide]
9 | 0.225 nM | COC(=O)NC[C@@H](NC(=O)c1ccc(-c2nc(C3CCOCC3)cnc2N)cc1F)c1cccc(Br)c1 [Example 409, (S)-methyl (2-(4-(3-amino-6-(tetrahydro-2H-pyran-4-yl)pyrazin-2-yl)-2-fluoro-benzamido)-2-(3-bromophenyl)ethyl)carbamate]
10 | 0.0943 nM | COC(=O)NC[C@@H](NC(=O)c1ccc(-c2nc(C3CCOCC3)cnc2N)cc1F)c1cc(F)cc(Br)c1 [Example 410, (S)-methyl (2-(4-(3-amino-6-(tetrahydro-2H-pyran-4-yl)pyrazin-2-yl)-2-fluoro-benzamido)-2-(3-bromo-5-fluorophenyl)ethyl) carbamate]
11 | 0.0743 nM | Nc1ncc(C2CCOCC2)nc1-c1ccc(C(=O)N[C@H](CNCCF)c2cc(F)cc(Br)c2)c(F)c1 [Example 411, (S)-4-(3-amino-6-(tetrahydro-2H-pyran-4-yl)pyrazin-2-yl)-N-(1-(3-bromo-5-fluorophenyl)-2-((2-fluoroethyl)amino)ethyl)-2-fluorobenzamide]
12 | 0.374 nM | Nc1ncc([C@H]2CC[C@H](O)CC2)nc1-c1ccc(C(=O)N[C@H](CNCCF)c2cc(F)cc(Br)c2)c(F)c1 [Example 412, 4-(3-amino-6-((1r,4S)-4-hydroxy-cyclohexyl)pyrazin-2-yl)-N-((S)-1-(3-bromo-5-fluorophenyl)-2-((2-fluoroethyl)amino)ethyl)-2-fluorobenzamide]
